pIC50: −log10 of the molar value. Like-named read-outs stand apart in the source and are kept apart here.
Legend:
[1] = tested on: SARS-CoV-2 Wuhan type (SARS-CoV-2PR-1); test: SARS-CoV-2 replication in Vero B4 cells, virions in supernatant by qRT-PCR; format: cell-based; settings: for pIC50: MOI 2 × 10^−2
[2] = tested on: SARS-CoV-2 Wuhan type (SARS-CoV-2PR-1); test: SARS-CoV-2 replication in A549-ACE2+/TMPRSS2+ cells, qRT-PCR; format: cell-based; settings: Severe acute respiratory syndrome coronavirus 2, 3 dpi
[3] = tested on: SARS-CoV-2 Wuhan type (SARS-CoV-2PR-1); test: SARS-CoV-2 replication in Caco-2 cells, qRT-PCR; format: cell-based; settings: Severe acute respiratory syndrome coronavirus 2, 3 dpi
[4] = tested on: SARS-CoV-2 Wuhan type (SARS-CoV-2PR-1); test: SARS-CoV-2 replication in Calu-3 cells, qRT-PCR; format: cell-based; settings: for pIC50 / IC90: Severe acute respiratory syndrome coronavirus 2, Calu-3, Wuhan type, 3 dpi
SARS-CoV-2 Alpha = test: VoC replication in Calu-3 cells, qRT-PCR; format: cell-based; settings: Severe acute respiratory syndrome coronavirus 2
SARS-CoV-2 Beta = test: VoC replication in Calu-3 cells, qRT-PCR; format: cell-based; settings: Severe acute respiratory syndrome coronavirus 2
SARS-CoV-2 Gamma = test: VoC replication in Calu-3 cells, qRT-PCR; format: cell-based; settings: Severe acute respiratory syndrome coronavirus 2
SARS-CoV-2 Delta = test: VoC replication in Calu-3 cells, qRT-PCR; format: cell-based; settings: for pIC50 / IC90: Severe acute respiratory syndrome coronavirus 2, […]
[5] = tested on: SARS-CoV-2 Omicron (SARS-CoV-2OM); test: VoC replication in Calu-3 cells, qRT-PCR; format: cell-based
SARS-CoV-2 Wuhan type = test: SARS-CoV-2 replication, summary over Vero B4, A549-ACE2+/TMPRSS2+, Caco-2 and Calu-3 cells, qRT-PCR; format: cell-based; settings: for IC90: Severe acute respiratory syndrome coronavirus 2, Wuhan type, Vero B4, A549-ACE2+/TMPRSS2+, Caco-2, Calu-3, read-out: IC90 values, range among all investigated cell lines
[6] = tested on: SARS-CoV-2 VoCs Alpha, Beta, Gamma, Delta, and Omicron; test: VoC replication in Calu-3 cells, summary over all VoCs, qRT-PCR; format: cell-based; settings: for IC90: Severe acute respiratory syndrome coronavirus 2, read-out: IC90, range over VoCs
[7] = tested on: SARS-CoV-2 Wuhan Type, Delta, or Omicron; test: Combination treatment in Calu-3 cells, summary over the three viruses, qRT-PCR; format: cell-based; settings: single treatment
[8] = tested on: uninfected Vero B4, A549-ACE2/TMPRSS2+, Caco-2, or Calu-3 cells; test: WST-1 cell viability assay, all cell types; format: cell-based; settings: three days
Method: (§1) To control for potential unspecific effects of PAM treatment on cell viability, water-soluble tetrazolium salt (WST)-1 assays were performed in uninfected Vero B4, A549-ACE2/TMPRSS2+, Caco-2, or Calu-3 cells under otherwise identical conditions as the virus infection experiments. […] Staurosporine (StS) was used as a positive control at a concentration of 1 µM. DMSO as a solvent control was added in the same amount as the respective highest concentration of PAM.
(§2) Following treatment with different concentrations of PAM (PAM concentrations are indicated at the x-axis) for three days, the influence on cell viability was measured by water-soluble tetrazolium salt (WST)-1 assay. […] Staurosprine (StS, 1 µM) was used as a positive control. DMSO as solvent control was added in the same amount as in the highest concentration of PAM (100 µM (A,B); 1000 µM (C,D)).
(§3) Viability of uninfected and treated cells was assessed by the water-soluble tetrazolium salt (WST)-1 assay (Roche, Basel, Switzerland) according to the manufacturer’s instructions. Cells were treated for 72 h with various inhibitors according to the protocols of the infection experiments.

Calu-3 cells = test: WST-1 cell viability assay; format: cell-based, human; settings: uninfected Calu-3, three days
Method: as §1, §2, §3

[9] = tested on: SARS-CoV-2 Wuhan type (SARS-CoV-2PR-1); test: Quantitative immunofluorescence of SARS-CoV-2 nucleoprotein (NP) in infected Calu-3 cells; format: cell-based; settings: 30 h treatment, increasing concentrations
Method: In addition, and to confirm the results obtained from the qRT-PCR analysis of the cell culture supernatants, Calu-3 cells were infected with the wildtype isolate SARS-CoV-2PR-1 at the same MOI (Figure 1) and subsequently treated with different concentrations of PAM for 30 h. Cells were fixed and further stained with a SARS-CoV-2 nucleoprotein (NP)-specific antibody. RDV was used as a positive control at 1 µM (Figure S1, see Supplementary Materials).
For immunostaining, infected Calu-3 cells were fixed with 4% PFA for 15 min. Following a washing step with PBS, cells were blocked and permeabilized overnight with 1% BSA in PBS (+0.2% Triton) and afterwards stained with a polyclonal rabbit anti-NP antibody (GeneTex, Cat. No. GTX135357, Irvine, CA, USA) for 24 h. […] For analysis, immunostaining was quantitative analyzed with a PerkinElmer VictorX4 reader (488 nm) (PerkinElmer, Waltham, MA, USA) and pictures were taken using a CTL-ELISPOT reader (Cellular Technology Ltd., Shaker Heights, OH, USA).
Figure S1. […] Quantitative immunofluorescent microscopy was performed to detect the viral nucleocapsid protein in Calu-3 cells 30 hrs post-infection with SARS-CoV-2 Wuhan type using an Alexa488-conjugated anti-SARS-CoV-2 nucleo-protein (NP)-antibody or DAPI as a control. […]

Caco-2 cells = test: WST-1 cell viability assay; settings: uninfected Caco-2, three days
[10] = parameters: method as in PMID 34580086; settings: use of Pio, after a COVID-19 diagnosis, cited from earlier work
SARS-CoV-2 [11] = settings: Calu-3; published; cited from earlier work
SARS-CoV-2 [12] = settings: Vero E6 cells; published; cited from earlier work
[13] = Severe acute respiratory syndrome coronavirus 2, Vero B4, Wuhan type, 3 dpi
[14] = Severe acute respiratory syndrome coronavirus 2, Calu-3
[15] = Severe acute respiratory syndrome coronavirus 2, Calu-3, Calu-3, […]

Row | SMILES | pIC50 [1, 13] | pIC50 [2] | pIC50 [3] | inhibition at 0.05 µM [4, 14] | pIC50 [4] | IC90 [4] | pIC50 (SARS-CoV-2 Alpha) | IC90 (SARS-CoV-2 Alpha) | pIC50 (SARS-CoV-2 Beta) | IC90 (SARS-CoV-2 Beta) | pIC50 (SARS-CoV-2 Gamma) | IC90 (SARS-CoV-2 Gamma) | pIC50 (SARS-CoV-2 Delta) | IC90 (SARS-CoV-2 Delta) | pIC50 [5, 15] | IC90 [5, 15] | IC90 (SARS-CoV-2 Wuhan type) | IC90 [6] | TD50 (Calu-3 cells) | TD50 (Caco-2 cells) | further results
1 | Cn1c(=O)c(Oc2ccc(F)cc2F)cc2cnc(NC(CCO)CCO)nc21 [PAM, Pamapimod] | ~6.70 | ~6.70 | ~6.60 | 33.9% | ~7.00 | ~3 µM | ~6.60 | ~3 µM | ~6.60 | ~3 µM | ~6.60 | ~3 µM | ~6.60 | ~4 µM | ~6.60 | ~2 µM | 2 to 3 µM | 3 to 4 µM | ~ 1000 µM | ~ 1000 µM | IC90 ([1]; Severe acute respiratory syndrome coronavirus 2, Vero B4, Wuhan type, 3 dpi, read-out: IC90): ~2 µM; IC90 [2]: ~2 µM; IC90 [3]: ~3 µM; inhibition at 0.01 µM [4, 14]: 10.5%; inhibition at 0.01 µM (SARS-CoV-2 Delta; Severe acute respiratory syndrome coronavirus 2, PAM 0.01 µM, Pio 0 µM, Fig 7D): 2.86%; inhibition at 0.05 µM (SARS-CoV-2 Delta; Severe acute respiratory syndrome coronavirus 2, PAM 0.05 µM, Pio 0 µM, Fig 7D): 27.6%; IC90 ([5]; Calu-3, […]): ~3 µM; inhibition at 0.01 µM ([5]; Severe acute respiratory syndrome coronavirus 2, PAM 0.01 µM, Pio 0 µM, Calu-3, Fig 7F): 3.6%; inhibition at 0.05 µM ([5]; Severe acute respiratory syndrome coronavirus 2, PAM 0.05 µM, Pio 0 µM, Calu-3, Fig 7F): 28.6%; production of progeny virions (SARS-CoV-2 Wuhan type; at a concentration of 6.25 µM, all infected cell lines): almost completely blocked; pIC50 ([6]; Severe acute respiratory syndrome coronavirus 2): ~6.60; reduction of virus replication, max. ([7]; 50 nM PAM, Figure 7B): ≤ 33%; impact on cell viability ([8]; concentrations up to 100 µg/mL): no impact on cell viability; SARS-CoV-2 replication within infected cells (NP staining normalized to DAPI) [9]: effectively suppressed SARS-CoV-2 replication in a dose-dependent manner
2 | CCc1ccc(CCOc2ccc(CC3SC(=O)NC3=O)cc2)nc1 (centres unmarked) [Pio, Pioglitazone] | ~6.30 | ~6.00 | ~6.15 | 15.9% | ~6.10 | ~10 µM | ~6.10 | ~15 µM | ~6.05 | ~15 µM | ~6.15 | ~15 µM | ~6.30 | ~12 µM | ~6.05 | ~10 µM | 8 to 10 µM | 12 to 15 µM | 500 to 1000 µM | 500 to 1000 µM | IC90 ([1]; Severe acute respiratory syndrome coronavirus 2, Vero): ~8 µM; inhibition at 0.02 µM [4, 14]: 4.64%; inhibition at 0.1 µM [4, 14]: 36.9%; inhibition at 0.3 µM [4, 14]: 48.3%; inhibition at 0.02 µM (SARS-CoV-2 Delta; Severe acute respiratory syndrome coronavirus 2, PAM 0 µM, Pio 0.02 µM, Fig 7D): 0.48%; inhibition at 0.05 µM (SARS-CoV-2 Delta; Severe acute respiratory syndrome coronavirus 2, PAM 0 µM, Pio 0.05 µM, Fig 7D): 12.2%; inhibition at 0.1 µM (SARS-CoV-2 Delta; Severe acute respiratory syndrome coronavirus 2, PAM 0 µM, Pio 0.1 µM, Fig 7D): 32.4%; inhibition at 0.3 µM (SARS-CoV-2 Delta; Severe acute respiratory syndrome coronavirus 2, PAM 0 µM, Pio 0.3 µM, Fig 7D): 46.9%; pIC50 ([5]; Calu-3, […]): ~6.15; inhibition at 0.02 µM ([5]; Severe acute respiratory syndrome coronavirus 2, PAM 0 µM, Pio 0.02 µM, Calu-3, Fig 7F): 1.44%; inhibition at 0.05 µM ([5]; Severe acute respiratory syndrome coronavirus 2, PAM 0 µM, Pio 0.05 µM, Calu-3, Fig 7F): 12.2%; inhibition at 0.1 µM ([5]; Severe acute respiratory syndrome coronavirus 2, PAM 0 µM, Pio 0.1 µM, Calu-3, Fig 7F): 27.1%; inhibition at 0.3 µM ([5]; Severe acute respiratory syndrome coronavirus 2, PAM 0 µM, Pio 0.3 µM, Calu-3, Fig 7F): 44%; SARS-CoV-2 replication (SARS-CoV-2 Wuhan type; at ~80 µM, all test settings): completely suppresses; reduction of viral replication, max. ([7]; 300 nM Pio, Figure 7D): ≤ 48%; impact on cell viability ([8]; concentrations up to ~80 µM): no impact on cell viability; hospital admissions ([10]; vs. 28.2% comparator): 20.0%; RR of hospital admissions [10]: 0.71
3 | CCC(CC)COC(=O)[C@H](C)N[P@](=O)(OC[C@H]1O[C@@](C#N)(c2ccc3c(N)ncnn23)[C@H](O)[C@@H]1O)Oc1ccccc1 [Remdesivir] | – | – | – | – | – | – | – | – | – | – | – | – | – | – | – | – | – | – | – | – | IC90 (SARS-CoV-2 [11]): 1.28 µM; IC90 (SARS-CoV-2 [12]): 3 µM
